# Measurements from EP4205733B1, “COMPOSITION FOR THE TREATMENT OF OSTEOPENIA AND OSTEOPOROSIS” (MIVELL S.R.L.S., priority 2021, dated 2023).
# Assays:
# [1] = Solubility test; type: physicochemical
# Description: Before proceeding with the cellular assays, the two ingredients have been tested for their solubility in several solvents, with the aim of identifying the best solubilizing agent (Table 2).
# [2] = system: IL-1β; assay: RTqPCR of mRNA levels of inflammatory cytokine IL-1β; type: cell-based, human; settings: senescent BM-MSCs, 48h, vs untreated senescent BM-MSCs
# Description: (§1) The experiments were conducted on mesenchymal stromal cells obtained from the bone marrow of a donor: BM-MSCs (Promocell). BM-MSCs were cultured in medium maintenance MSC-GM2 (PromoCell) with the addition of Supplement Mix and Penicillin-Streptomycin 1%, in humid atmosphere at 37°C, with 5% CO2. The proliferative capacity of this cell model was evaluated and characterized and the cellular senescence was assessed using p16, p21 expression and beta-galactosidase activity (data not shown). […]
# (§2) The anti-inflammatory activity of the individual ingredients and the synergy between them have been assessed by the measurement of mRNA levels of the cytokines involved in inflammatory processes: IL-1β, IL-6, IL-8 and MCP-1 [Lencel et al., 2011; Mulholland et al., 2019]. […]
# (§3) The pro-osteogenic activity of the individual components (pro-mineralizing and anti-inflammatory) and their combination was firstly determined through the analysis of the modulation of the mRNA levels of the osteogenic marker COL1α1 in young BM-MSCs cells. […] Furthermore, the pro-mineralizing and anti-inflammatory activity of the individual components and their combination was determined through the analysis of the modulation of the mRNA levels of the osteogenic marker ALP and of the pro-inflammatory markers IL-1β and MCP-1 in senescent BM-MSCs cells. […]
# [3] = system: MCP-1; assay: RTqPCR of mRNA levels of inflammatory cytokine MCP-1; type: cell-based, human; settings: senescent BM-MSCs, 48h, vs untreated senescent BM-MSCs
# Description: as §1, §2, §3
Compound,Solubility test results: Organic solvents ([1]; organic solvents),Solubility test results: Cremophor ([1]; solvent Cremophor),Solubility test results: DMSO ([1]; solvent DMSO),Solubility test results: PBS ([1]; solvent PBS),IL-1β mRNA levels [2],MCP-1 mRNA levels [3]
"CC(C)=CCC/C(C)=C/CC/C(C)=C/CC/C(C)=C/CC/C(C)=C/CC/C(C)=C/CC/C(C)=C/CC1=C(C)C(=O)c2ccccc2C1=O [Vitamin K2, Menaquinone-7]",Not soluble,Soluble,Not soluble,Not soluble,,
OC[C@H]1O[C@@H](Oc2cc(O)cc(/C=C/c3ccc(O)cc3)c2)[C@H](O)[C@@H](O)[C@@H]1O [polydatin],,,,,significantly decrease,significantly decrease
